Data: ChEMBL document CHEMBL1201862, “PubChem BioAssay data set” (2004)
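Five compound concentrations were applied to cells in 96-well plates for 48 hours; endpoints were derived by simple linear interpolation of the resulting dose-response curve. GI50 = concentration required for 50% inhibition of growth.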 Activity calls are given as the source filed them. Rule as the data show it: active = GI50 up to about 1.1 µM and inactive = higher.

Tests used:
Assay in all cases: NCI tumour cell line growth inhibition, 48 h
A498 = test system: A498
ACHN = test system: ACHN
SR = test system: SR
HOP-92 = test system: HOP-92
A549 = test system: A549
Hs-578T = test system: Hs-578T
NCI/ADR-RES = test system: NCI/ADR-RES
SW-620 = test system: SW-620
MOLT-4 = test system: MOLT-4
LOX IMVI = test system: LOX IMVI
HOP-62 = test system: HOP-62
MCF7 = test system: MCF7
K562 = test system: K562
SK-MEL-5 = test system: SK-MEL-5
M14 = test system: M14
OVCAR-5 = test system: OVCAR-5
SNB-19 = test system: SNB-19
NCI-H23 = test system: NCI-H23
U-251 = test system: U-251
SN12C = test system: SN12C
TK-10 = test system: TK-10
OVCAR-3 = test system: OVCAR-3
NCI-H460 = test system: NCI-H460
COLO 205 = test system: COLO 205
EKVX = test system: EKVX
HT-29 = test system: HT-29
RXF 393 = test system: RXF 393
MDA-MB-231 = test system: MDA-MB-231
SF-268 = test system: SF-268
HCT-15 = test system: HCT-15
SK-MEL-28 = test system: SK-MEL-28
HCT-116 = test system: HCT-116
OVCAR-4 = test system: OVCAR-4
IGROV-1 = test system: IGROV-1
UO-31 = test system: UO-31
MDA-MB-435 = test system: MDA-MB-435
RPMI-8226 = test system: RPMI-8226
SF-295 = test system: SF-295
UACC-62 = test system: UACC-62
PC-3 = test system: PC-3
HCC 2998 = test system: HCC 2998
DU-145 = test system: DU-145
CAKI-1 = test system: CAKI-1
NCI-H522 = test system: NCI-H522
SF-539 = test system: SF-539
SK-MEL-2 = test system: SK-MEL-2
HL-60 = test system: HL-60
CCRF-CEM = test system: CCRF-CEM
SNB-75 = test system: SNB-75
T47D = test system: T47D
UACC-257 = test system: UACC-257
OVCAR-8 = test system: OVCAR-8
KM12 = test system: KM12
Malme-3M = test system: Malme-3M
MDA-N = test system: MDA-N
BT-549 = test system: BT-549
786-0 = test system: 786-0
SK-OV-3 = test system: SK-OV-3

## CC1=NN(C(=O)CC(=O)Nc2ccccc2C)C(=O)C1/N=N/c1ccc(C(=O)O)cc1 (stereo not drawn)
A498
  GI50: > 100 µM (inactive)
ACHN
  GI50: > 100 µM (inactive)
SR
  GI50: 43.4 µM (inactive)
HOP-92
  GI50: 20.5 µM (inactive)
A549
  GI50: > 100 µM (inactive)
Hs-578T
  GI50: 68.9 µM (inactive)
NCI/ADR-RES
  GI50: > 100 µM (inactive)
SW-620
  GI50: > 100 µM (inactive)
MOLT-4
  GI50: 88.1 µM (inactive)
LOX IMVI
  GI50: 79.3 µM (inactive)
HOP-62
  GI50: > 100 µM (inactive)
MCF7
  GI50: > 100 µM (inactive)
K562
  GI50: > 100 µM (inactive)
SK-MEL-5
  GI50: > 100 µM (inactive)
M14
  GI50: > 100 µM (inactive)
OVCAR-5
  GI50: > 100 µM (inactive)
SNB-19
  GI50: > 100 µM (inactive)
NCI-H23
  GI50: > 100 µM (inactive)
U-251
  GI50: > 100 µM (inactive)
SN12C
  GI50: > 100 µM (inactive)
TK-10
  GI50: > 100 µM (inactive)
OVCAR-3
  GI50: > 100 µM (inactive)
NCI-H460
  GI50: > 100 µM (inactive)
COLO 205
  GI50: > 100 µM (inactive)
EKVX
  GI50: > 100 µM (inactive)
HT-29
  GI50: > 100 µM (inactive)
RXF 393
  GI50: > 100 µM (inactive)
MDA-MB-231
  GI50: > 100 µM (inactive)
SF-268
  GI50: > 100 µM (inactive)
HCT-15
  GI50: > 100 µM
SK-MEL-28
  GI50: > 100 µM (inactive)
HCT-116
  GI50: > 100 µM (inactive)
OVCAR-4
  GI50: > 100 µM (inactive)
IGROV-1
  GI50: > 100 µM (inactive)
UO-31
  GI50: 48.6 µM (inactive)
MDA-MB-435
  GI50: > 100 µM (inactive)
RPMI-8226
  GI50: > 100 µM (inactive)
SF-295
  GI50: > 100 µM (inactive)
UACC-62
  GI50: > 100 µM (inactive)
PC-3
  GI50: > 100 µM (inactive)
HCC 2998
  GI50: > 100 µM (inactive)
DU-145
  GI50: > 100 µM (inactive)
CAKI-1
  GI50: > 100 µM (inactive)
NCI-H522
  GI50: > 100 µM (inactive)
SF-539
  GI50: > 100 µM (inactive)
SK-MEL-2
  GI50: > 100 µM (inactive)
HL-60
  GI50: > 100 µM (inactive)
CCRF-CEM
  GI50: 86.9 µM (inactive)
SNB-75
  GI50: 70.5 µM (inactive)
T47D
  GI50: 44.1 µM (inactive)
UACC-257
  GI50: > 100 µM (inactive)
OVCAR-8
  GI50: > 100 µM (inactive)
KM12
  GI50: > 100 µM (inactive)
Malme-3M
  GI50: > 100 µM (inactive)
MDA-N
  GI50: > 100 µM (inactive)
BT-549
  GI50: > 100 µM (inactive)
786-0
  GI50: > 100 µM (inactive)

## COc1ccc(OC)c2sc(N3C(=O)/C(=C/c4ccccc4S)N=C3c3ccccc3)nc12
A498
  GI50: 55.5 µM (inactive)
ACHN
  GI50: 34.8 µM (inactive)
SR
  GI50: 14.4 µM (inactive)
HOP-92
  GI50: > 100 µM (inactive)
A549
  GI50: 42.8 µM (inactive)
Hs-578T
  GI50: 49.7 µM (inactive)
NCI/ADR-RES
  GI50: 77.8 µM (inactive)
SW-620
  GI50: 39.2 µM (inactive)
MOLT-4
  GI50: 8.83 µM (inactive)
LOX IMVI
  GI50: 24.9 µM (inactive)
HOP-62
  GI50: 82.6 µM (inactive)
MCF7
  GI50: 18.7 µM (inactive)
K562
  GI50: 26 µM (inactive)
SK-MEL-5
  GI50: 18.4 µM (inactive)
M14
  GI50: 36.5 µM (inactive)
OVCAR-5
  GI50: > 100 µM (inactive)
SNB-19
  GI50: 69.2 µM (inactive)
U-251
  GI50: 23.8 µM (inactive)
SN12C
  GI50: 26.9 µM (inactive)
TK-10
  GI50: > 100 µM (inactive)
SK-OV-3
  GI50: > 100 µM (inactive)
OVCAR-3
  GI50: 37.5 µM (inactive)
NCI-H460
  GI50: 53.8 µM (inactive)
COLO 205
  GI50: 32.8 µM (inactive)
EKVX
  GI50: 32.1 µM (inactive)
HT-29
  GI50: 38.9 µM (inactive)
RXF 393
  GI50: 18.8 µM (inactive)
MDA-MB-231
  GI50: > 100 µM (inactive)
SF-268
  GI50: 59.7 µM (inactive)
HCT-15
  GI50: 34.1 µM
SK-MEL-28
  GI50: > 100 µM (inactive)
HCT-116
  GI50: 28.2 µM (inactive)
OVCAR-4
  GI50: 39.5 µM (inactive)
IGROV-1
  GI50: 90.4 µM (inactive)
UO-31
  GI50: 28.1 µM (inactive)
MDA-MB-435
  GI50: 17.6 µM (inactive)
RPMI-8226
  GI50: 22.6 µM (inactive)
SF-295
  GI50: 52.4 µM (inactive)
UACC-62
  GI50: 21.5 µM (inactive)
PC-3
  GI50: 19.7 µM (inactive)
HCC 2998
  GI50: > 100 µM (inactive)
DU-145
  GI50: 49.4 µM (inactive)
CAKI-1
  GI50: 95.9 µM (inactive)
SF-539
  GI50: 28.6 µM (inactive)
SK-MEL-2
  GI50: 25.8 µM (inactive)
HL-60
  GI50: 26.1 µM (inactive)
CCRF-CEM
  GI50: 22.3 µM (inactive)
SNB-75
  GI50: 16.5 µM (inactive)
T47D
  GI50: 24.2 µM (inactive)
UACC-257
  GI50: 63 µM (inactive)
OVCAR-8
  GI50: 47.2 µM (inactive)
KM12
  GI50: 41 µM (inactive)
MDA-N
  GI50: 21.8 µM (inactive)
BT-549
  GI50: 45.9 µM (inactive)
786-0
  GI50: 59.2 µM (inactive)

## C=C(C)[C@@H]1CC[C@]2(C(=O)O)CC[C@]3(C)[C@H](CC[C@@H]4[C@@]5(C)CC[C@H](C(=O)/C=C/c6ccc(O)cc6)C(C)(C)[C@@H]5CC[C@]43C)[C@@H]12
A498
  GI50: 5.07 µM (inactive)
SR
  GI50: 4.06 µM (inactive)
HOP-92
  GI50: 11.9 µM (inactive)
A549
  GI50: 9.73 µM (inactive)
Hs-578T
  GI50: 4.75 µM (inactive)
NCI/ADR-RES
  GI50: 3.22 µM (inactive)
SW-620
  GI50: 2.93 µM (inactive)
MOLT-4
  GI50: 2.85 µM (inactive)
LOX IMVI
  GI50: 3.54 µM (inactive)
HOP-62
  GI50: 8.39 µM (inactive)
MCF7
  GI50: 3.67 µM (inactive)
K562
  GI50: 3.11 µM (inactive)
SK-MEL-5
  GI50: 2.55 µM (inactive)
M14
  GI50: 7.13 µM (inactive)
OVCAR-5
  GI50: 11.5 µM (inactive)
SNB-19
  GI50: 6.92 µM (inactive)
NCI-H23
  GI50: 4.22 µM (inactive)
U-251
  GI50: 2.93 µM (inactive)
SN12C
  GI50: 3.05 µM (inactive)
TK-10
  GI50: 7.82 µM (inactive)
SK-OV-3
  GI50: 6.15 µM (inactive)
OVCAR-3
  GI50: 3.39 µM (inactive)
NCI-H460
  GI50: 2.73 µM (inactive)
COLO 205
  GI50: 2.39 µM (inactive)
EKVX
  GI50: 2.47 µM (inactive)
HT-29
  GI50: 3.38 µM (inactive)
RXF 393
  GI50: 6.41 µM (inactive)
MDA-MB-231
  GI50: 6.65 µM (inactive)
SF-268
  GI50: 8.11 µM (inactive)
HCT-15
  GI50: 3.45 µM
SK-MEL-28
  GI50: 11.9 µM (inactive)
HCT-116
  GI50: 2.51 µM (inactive)
OVCAR-4
  GI50: 9.98 µM (inactive)
IGROV-1
  GI50: 8.17 µM (inactive)
UO-31
  GI50: 5.2 µM (inactive)
MDA-MB-435
  GI50: 7.67 µM (inactive)
SF-295
  GI50: 6.15 µM (inactive)
UACC-62
  GI50: 8.89 µM (inactive)
PC-3
  GI50: 5.98 µM (inactive)
HCC 2998
  GI50: 3.21 µM (inactive)
DU-145
  GI50: 5.73 µM (inactive)
CAKI-1
  GI50: 2.64 µM (inactive)
NCI-H522
  GI50: 3.41 µM (inactive)
SF-539
  GI50: 3.01 µM (inactive)
SK-MEL-2
  GI50: 16.3 µM (inactive)
HL-60
  GI50: 1.15 µM (inactive)
CCRF-CEM
  GI50: 2.39 µM (inactive)
SNB-75
  GI50: > 10 µM (inactive)
T47D
  GI50: 4.58 µM (inactive)
UACC-257
  GI50: 3.58 µM (inactive)
OVCAR-8
  GI50: 4.3 µM (inactive)
KM12
  GI50: 3.29 µM (inactive)
Malme-3M
  GI50: 13.5 µM (inactive)
MDA-N
  GI50: 4.72 µM (inactive)
BT-549
  GI50: 10.4 µM (inactive)
786-0
  GI50: 4.92 µM (inactive)
